Where two headings read alike, the source gives them in different places. Marks after values point to notes of the source that are not given here.
Experiments:
[1] = tested on: isolated rat liver mitochondria; assay: Mitochondrial oxygen consumption (glutamate/malate or succinate driven, state 4 and state 3); type: biochemical; conditions: for Glutamate/malate driven respiration State 3 / Glutamate/malate driven respiration State 4 / Succinate-driven respiration State 3 / Succinate-driven respiration State 4: oxygen consumption, DMSO-treated = 1; on State 3 respiration driven by succinate at 10XCmax: key: 0 indicates that the drug had no effects (negative); on State 3 respiration driven by succinate at 1XCmax: key: 0 indicates that the drug had no effects (negative)
How it was run: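 Rat liver mitochondria (1 mg/ml protein) exposed 5 min to kinase inhibitors in 0.1% DMSO, then O2 consumption measured by Clark-type electrode with glutamate/malate or succinate (state 4), ADP added after 3 min (state 3). Rates normalized to 0.1% DMSO controls set to 1.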

RCC I = RCC I activity in submitochondrial particles; type: biochemical, rat; parameters: key to RCC I at 10XCmax / RCC I at 100XCmax / RCC I at 50XCmax / RCC I at 30XCmax / RCC I at 20XCmax: activity relative to DMSO-treated controls (control set as 1 = 100%)
How it was run: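 Abs 340 nm (I/V) or 600 nm (II), 1-min reads × 6 min; 550 nm (III, IV), 10-s reads × 2 min. RCC I = rotenone-free minus rotenone rate. DMSO control = 1.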

[2] = tested on: isolated rat liver mitochondria; assay: Mitochondrial inner membrane potential (MMP), Rhodamine 123; type: biochemical
Excerpt: Fig. 3 KI effects on mitochondrial inner membrane potential (MMP). […] In a, c, data are means and standard derivations from three separate experiments. *p < 0.05 as compared to DMSO-treated samples at the end of experiments. In b, data are means of two independent experiments

RCC II = biological target: T1, RCC II (Rattus norvegicus, UniProt P21913+Q641Z9+Q6PCT8+Q920L2); assay: RCC II activity in submitochondrial particles; type: biochemical; parameters: key: activity relative to DMSO-treated controls (control set as 1 = 100%); conditions: relative to DMSO treated samples
T1 construct: Submitochondrial particles were prepared by subjecting the intact mitochondria to three successive freeze–thaw cycles; from tissue; host or cells: rat liver mitochondria, used as submitochondrial particles
How it was run: (§1)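 Kinase inhibitors were preincubated 15 min with submitochondrial particles (1 mg/ml) before complex activities were measured. RCC I was the rotenone-sensitive portion (activity without minus with rotenone). RCC I/V was read at 340 nm and RCC II at 600 nm every 1 min for 6 min. RCC III and IV were read at 550 nm every 10 s for 2 min. Activities are normalized to DMSO controls set as 1.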

RCC III = RCC III activity in submitochondrial particles; type: biochemical, rat; conditions: 10-fold Cmax; 15 min; DMSO-treated = 100
How it was run: as §1

[3] = tested on: isolated rat liver mitochondria; assay: Mitochondrial swelling (absorbance at 535 nm); type: biochemical
RCC IV = RCC IV activity in submitochondrial particles; type: biochemical, rat; conditions: 10-fold Cmax; 15 min; DMSO-treated = 100
How it was run: as §1

[4] = tested on: isolated rat liver mitochondria; assay: Mitochondrial ROS production (CM-H2DCFDA)
[5] = cited from earlier work
RCC V = RCC V activity in submitochondrial particles; type: biochemical, rat; on RCC V at 5XCmax: key: 0 indicates that the drug had no effects (negative)
How it was run: as §1

[6] = 1XCmax, DMSO treated samples set as 1
[7] = 2.5XCmax, DMSO treated samples set as 1
[8] = 5XCmax, DMSO treated samples set as 1
[9] = 10XCmax, DMSO treated samples set as 1
[10] = 10-fold Cmax, 15 min, DMSO-treated = 100
[11] = 1XCmax, difference in signal between KI and DMSO treated samples at the end of experiments

T1 sequence (Q920L2 35-656): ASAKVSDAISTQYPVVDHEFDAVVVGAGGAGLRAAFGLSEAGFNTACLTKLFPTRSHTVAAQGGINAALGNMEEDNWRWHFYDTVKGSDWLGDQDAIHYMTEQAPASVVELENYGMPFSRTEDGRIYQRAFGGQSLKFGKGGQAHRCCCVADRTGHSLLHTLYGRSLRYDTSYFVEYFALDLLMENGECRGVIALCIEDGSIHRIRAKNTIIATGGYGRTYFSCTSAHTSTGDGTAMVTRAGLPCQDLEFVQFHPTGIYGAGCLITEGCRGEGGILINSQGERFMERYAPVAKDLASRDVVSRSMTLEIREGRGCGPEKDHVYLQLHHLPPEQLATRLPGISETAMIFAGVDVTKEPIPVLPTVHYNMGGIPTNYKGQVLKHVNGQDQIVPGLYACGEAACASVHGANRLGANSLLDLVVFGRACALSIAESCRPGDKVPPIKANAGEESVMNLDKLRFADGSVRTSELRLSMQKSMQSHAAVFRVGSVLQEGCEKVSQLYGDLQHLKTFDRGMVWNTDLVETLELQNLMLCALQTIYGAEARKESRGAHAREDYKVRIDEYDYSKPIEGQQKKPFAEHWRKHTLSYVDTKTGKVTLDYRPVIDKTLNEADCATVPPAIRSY
T1 sequence (P21913 31-282): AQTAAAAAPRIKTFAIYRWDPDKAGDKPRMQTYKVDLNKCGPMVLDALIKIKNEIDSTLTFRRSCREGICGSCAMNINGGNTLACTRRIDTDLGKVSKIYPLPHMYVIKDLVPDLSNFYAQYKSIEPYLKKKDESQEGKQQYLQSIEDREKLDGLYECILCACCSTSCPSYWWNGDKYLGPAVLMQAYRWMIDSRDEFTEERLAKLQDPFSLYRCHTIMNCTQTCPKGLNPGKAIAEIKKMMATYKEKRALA
T1 sequence (Q641Z9 1-169): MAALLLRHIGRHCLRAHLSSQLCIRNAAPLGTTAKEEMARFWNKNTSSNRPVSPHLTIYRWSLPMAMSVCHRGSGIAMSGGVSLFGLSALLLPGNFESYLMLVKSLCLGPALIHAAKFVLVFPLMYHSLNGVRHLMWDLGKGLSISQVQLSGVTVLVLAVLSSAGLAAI
T1 sequence (Q6PCT8 57-159): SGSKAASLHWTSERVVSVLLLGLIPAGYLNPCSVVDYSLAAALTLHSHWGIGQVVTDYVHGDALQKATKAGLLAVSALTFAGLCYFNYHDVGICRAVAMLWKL

CNC(=O)c1cc(Oc2ccc(NC(=O)Nc3ccc(Cl)c(C(F)(F)F)c3)c(F)c2)ccn1 [Regorafenib]
Glutamate/malate driven respiration State 3 ([1]; 1-fold Cmax): 2.33 ± 0.06
Glutamate/malate driven respiration State 4 ([1]; 1-fold Cmax): 7.45 ± 0.17
Succinate-driven respiration State 3 ([1]; 1-fold Cmax): 1.05 ± 0.07
Succinate-driven respiration State 4 ([1]; 1-fold Cmax): 2.95 ± 0.08
State 3 respiration driven by glutamate/malate at 1XCmax [1, 6]: 2.33±0.06
State 3 respiration driven by succinate at 1XCmax [1, 6]: 0
State 4 respiration driven by glutamate/malate at 1XCmax [1, 6]: 7.45±0.17
State 4 respiration driven by succinate at 1XCmax [1, 6]: 2.95±0.08
Glutamate/malate driven respiration State 3 ([1]; 2.5-fold Cmax): 2.51 ± 0.04
Glutamate/malate driven respiration State 4 ([1]; 2.5-fold Cmax): 5.51 ± 0.35
Succinate-driven respiration State 3 ([1]; 2.5-fold Cmax): 0.84 ± 0.04
Succinate-driven respiration State 4 ([1]; 2.5-fold Cmax): 3.59 ± 0.14
State 3 respiration driven by glutamate/malate at 2.5XCmax [1, 7]: 2.51±0.04
State 3 respiration driven by succinate at 2.5XCmax [1, 7]: 0
State 4 respiration driven by glutamate/malate at 2.5XCmax [1, 7]: 5.51±0.35
State 4 respiration driven by succinate at 2.5XCmax [1, 7]: 3.59±0.14
Glutamate/malate driven respiration State 3 ([1]; 5-fold Cmax): 1.33 ± 0.04
Glutamate/malate driven respiration State 4 ([1]; 5-fold Cmax): 3.82 ± 0.72
Succinate-driven respiration State 3 ([1]; 5-fold Cmax): 0.83 ± 0.03
Succinate-driven respiration State 4 ([1]; 5-fold Cmax): 1.69 ± 0.09
State 3 respiration driven by glutamate/malate at 5XCmax [1, 8]: 1.33±0.04
State 3 respiration driven by succinate at 5XCmax [1, 8]: 0
State 4 respiration driven by glutamate/malate at 5XCmax [1, 8]: 3.82±0.72
State 4 respiration driven by succinate at 5XCmax [1, 8]: 1.69±0.09
Glutamate/malate driven respiration State 3 ([1]; 10-fold Cmax): 1.36 ± 0.03
Glutamate/malate driven respiration State 4 ([1]; 10-fold Cmax): 3.84 ± 0.34
Succinate-driven respiration State 3 ([1]; 10-fold Cmax): 0.82 ± 0.19
Succinate-driven respiration State 4 ([1]; 10-fold Cmax): 1.78 ± 0.19
State 3 respiration driven by glutamate/malate at 10XCmax [1, 9]: 1.36±0.03
State 3 respiration driven by succinate at 10XCmax [1, 9]: 0
State 4 respiration driven by glutamate/malate at 10XCmax [1, 9]: 3.84±0.34
State 4 respiration driven by succinate at 10XCmax [1, 9]: 1.78±0.19
effect on state 4 respiration ([1]; highest tested concentrations): significant increases
lowest concentration significantly affecting mitochondrial oxygen consumption ([1]; tested at 1 to 100-fold Cmax): equal to Cmax
RCC activity I (RCC I; [10]): 99.37 ± 3.35 % of control
RCC I at 10XCmax (RCC I; 10XCmax, relative to DMSO treated samples): 0
lowest concentration decreasing MMP [2]: onefold
MMP measured by Rhodamine 123 at 1XCmax [2, 11]: 4244±687*
MMP measured by Rhodamine 123 at 2.5XCmax ([2]; 2.5XCmax, difference in signal between KI and DMSO treated samples at the end of experiments): 4112±722*
MMP measured by Rhodamine 123 at 5XCmax ([2]; 5XCmax, difference in signal between KI and DMSO treated samples at the end of experiments): 3961±724*
MMP measured by Rhodamine 123 at 10XCmax ([2]; 10XCmax, difference in signal between KI and DMSO treated samples at the end of experiments): 3711±588*
effect on MMP ([2]; up to 100-fold Cmax or highest testable concentration): decrease in MMP
RCC II at 1.0XCmax (RCC II; 1.0XCmax): 0
RCC II at 2.5XCmax (RCC II; 2.5XCmax): 0
RCC II at 5XCmax (RCC II; 5XCmax): 0
RCC II at 10XCmax (RCC II; 10XCmax): 83.50±2.91
RCC activity III (RCC III): 90.31 ± 13.61 % of control
lowest concentration causing mitochondrial swelling [3]: onefold
Swelling 1XCmax [3, 11]: 0.46±0.03
mitochondrial swelling ([3]; onefold Cmax): almost maximal swelling
effect on mitochondrial swelling ([3]; up to 100-fold Cmax or highest testable concentration, 25 µM calcium chloride): significant mitochondrial swelling
RCC activity IV (RCC IV): 95.37 ± 6.45 % of control
ROS measured by CM-H2DCFDA at 1XCmax [4, 6]: 0
ROS measured by CM-H2DCFDA at 2.5XCmax [4, 7]: 0
ROS measured by CM-H2DCFDA at 5XCmax [4, 8]: 0
ROS measured by CM-H2DCFDA at 10XCmax [4, 9]: 0
effect on ROS production ([4]; highest tested concentrations): neither of them affected ROS production
DILI potential (based on labeling) ([5]; 1 = DILI positive, 0 = negative, ref product labeling): 1
Labeling for DILI ([5]; BBW: black box warning, W&P: Warnings and Precautions, ref product labeling): BBW: fatal DILI
labeling for DILI ([5]; W&P warnings and precautions, BBW black box warnings, ref FDA product labeling): BBW: fatal DILI
DILI potential (based on labeling) ([5]; ref FDA product labeling): 1
RCC V at 5XCmax (RCC V; 5XCmax, relative to DMSO treated samples): 0
RCC activity V (RCC V; [10]): 90.36 ± 13.39 % of control

Reference: publication PMC5515969, “Effects of 31 FDA approved small-molecule kinase inhibitors on isolated rat liver mitochondria” (Archives of Toxicology, 2016)
